The structures appear in SMILES notation.

One experiment has as its target T1, M3 muscarinic receptors (Homo sapiens, UniProt P20309).
T1 construct: expressed in transfected cells; host or cells: CHO cells
Briefly: Radioligand binding assay, muscarinic M3 receptors. The note with it: test compound 1×10^−6 M. Summed up: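 Radioligand competition binding, detected by scintillation counting; non-specific binding defined with excess unlabelled ligand. Results given as % inhibition of control specific binding; IC50 from Hill-equation fit of competition curves, Ki via Cheng-Prusoff with radioligand KD from Scatchard plot.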

The subject of experiment [1] is α1 adrenergic receptors (rat cerebral cortex). The experiment can be described thus: Radioligand binding assay, adrenergic α1 receptors. Conditions: test compound 1×10^−6 M. Summed up:
(§1)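 Values derive from radioligand displacement, with non-specific binding defined by excess cold ligand and detection by scintillation. Hill-fit IC50s were converted to Ki via Cheng-Prusoff using Scatchard-derived Kd; percent inhibition of control specific binding also reported.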

For experiment [2], the target named is T2, H1 histaminergic receptors (Homo sapiens, UniProt P35367).
T2 construct: expressed in transfected cells; host or cells: HEK-293 cells
T2 sequence (P35367 whole entry): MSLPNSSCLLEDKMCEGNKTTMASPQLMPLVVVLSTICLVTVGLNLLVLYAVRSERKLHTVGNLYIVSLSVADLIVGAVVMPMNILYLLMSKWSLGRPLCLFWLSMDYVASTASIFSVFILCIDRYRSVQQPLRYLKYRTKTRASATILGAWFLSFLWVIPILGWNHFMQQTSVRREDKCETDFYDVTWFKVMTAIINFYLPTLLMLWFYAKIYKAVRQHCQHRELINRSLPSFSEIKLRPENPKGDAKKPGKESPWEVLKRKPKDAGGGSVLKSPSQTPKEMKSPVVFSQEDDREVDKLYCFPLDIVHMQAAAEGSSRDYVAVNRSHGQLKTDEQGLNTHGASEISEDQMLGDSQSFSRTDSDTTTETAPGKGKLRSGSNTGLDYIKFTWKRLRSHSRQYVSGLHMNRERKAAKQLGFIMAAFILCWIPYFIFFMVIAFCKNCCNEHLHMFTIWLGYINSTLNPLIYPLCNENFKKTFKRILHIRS
The experiment can be described thus: Radioligand binding assay, histaminergic H1 receptors. Conditions: human recombinant (HEK-293 cells), [3H]pyrilamine 1 nM. Summed up:
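Competition binding at human H1 receptors; specific binding taken as total minus non-specific binding in excess unlabelled ligand, scintillation read-out. IC50 from Hill-equation fit of competition curves; Ki by Cheng-Prusoff using radioligand concentration and Kd (from Scatchard plot).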

For a further experiment, the target named is T3, 5-HT2A receptor (Homo sapiens, UniProt P28223).
T3 construct: purchased PerkinElmer
T3 sequence (P28223 whole entry): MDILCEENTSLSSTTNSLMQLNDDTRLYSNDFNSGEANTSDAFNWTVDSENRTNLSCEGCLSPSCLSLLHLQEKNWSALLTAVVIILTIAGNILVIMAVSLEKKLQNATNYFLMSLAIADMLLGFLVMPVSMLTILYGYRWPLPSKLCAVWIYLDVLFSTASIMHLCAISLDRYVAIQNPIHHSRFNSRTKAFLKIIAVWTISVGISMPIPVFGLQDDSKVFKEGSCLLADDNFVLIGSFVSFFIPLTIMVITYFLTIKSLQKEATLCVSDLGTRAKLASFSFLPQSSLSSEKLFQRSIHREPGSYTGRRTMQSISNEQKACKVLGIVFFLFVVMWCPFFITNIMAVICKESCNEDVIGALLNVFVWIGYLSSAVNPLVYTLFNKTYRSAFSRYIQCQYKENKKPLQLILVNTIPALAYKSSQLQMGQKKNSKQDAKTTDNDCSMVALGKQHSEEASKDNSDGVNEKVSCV
The experiment can be described thus: Radioligand binding assay, serotoninergic 5-HT2A receptors. Conditions: for Ki: read-out: Inhibition constants Ki, 5-HT2A; for inhibition at 1 µM: binding assay result in %, Table 5a. Summed up: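 Competition curves from scintillation-counted specific binding (total minus binding with excess unlabelled ligand) were Hill-fitted to give IC50, converted to Ki via Cheng-Prusoff using Scatchard-derived Kd.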

Experiment [3] concerns the target dopaminergic receptors D3 (Homo sapiens, UniProt P35462). The experiment can be described thus: Radioligand binding assay, dopaminergic D3 receptors. Conditions: test compound 1×10^−6 M. Summed up:
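Scintillation read-out. Specific = total − nonspecific (excess cold ligand). Data as % of control specific binding / % inhibition; IC50 by Hill fit; Ki = IC50/(1+L/KD), KD from Scatchard plot.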

Experiment [4] addresses T4, 5-HT1A receptor (rat hippocampus) (Rattus norvegicus, UniProt P19327).
T4 construct: hippocampus; from tissue; host or cells: rat hippocampus
T4 sequence (P19327 1-422): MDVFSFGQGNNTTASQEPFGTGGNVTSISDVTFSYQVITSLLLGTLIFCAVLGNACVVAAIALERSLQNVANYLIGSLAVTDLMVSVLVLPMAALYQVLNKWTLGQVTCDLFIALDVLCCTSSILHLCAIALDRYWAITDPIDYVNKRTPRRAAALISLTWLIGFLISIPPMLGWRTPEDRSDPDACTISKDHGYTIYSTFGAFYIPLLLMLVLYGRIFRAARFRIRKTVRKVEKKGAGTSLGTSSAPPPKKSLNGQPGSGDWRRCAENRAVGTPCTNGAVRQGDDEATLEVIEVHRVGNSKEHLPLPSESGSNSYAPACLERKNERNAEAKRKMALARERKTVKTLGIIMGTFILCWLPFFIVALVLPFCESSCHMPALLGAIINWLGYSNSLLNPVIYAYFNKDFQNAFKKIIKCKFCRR
Briefly: Radioligand binding assay, serotoninergic 5-HT1A receptors. The note with it: binding assay result in %, Table 5a.

For the next experiment, the target named is T5, 5-HT2C receptor (Homo sapiens, UniProt P28335).
T5 construct: expressed in transfected cells; host or cells: HEK-293 cells
T5 sequence (P28335 33-458): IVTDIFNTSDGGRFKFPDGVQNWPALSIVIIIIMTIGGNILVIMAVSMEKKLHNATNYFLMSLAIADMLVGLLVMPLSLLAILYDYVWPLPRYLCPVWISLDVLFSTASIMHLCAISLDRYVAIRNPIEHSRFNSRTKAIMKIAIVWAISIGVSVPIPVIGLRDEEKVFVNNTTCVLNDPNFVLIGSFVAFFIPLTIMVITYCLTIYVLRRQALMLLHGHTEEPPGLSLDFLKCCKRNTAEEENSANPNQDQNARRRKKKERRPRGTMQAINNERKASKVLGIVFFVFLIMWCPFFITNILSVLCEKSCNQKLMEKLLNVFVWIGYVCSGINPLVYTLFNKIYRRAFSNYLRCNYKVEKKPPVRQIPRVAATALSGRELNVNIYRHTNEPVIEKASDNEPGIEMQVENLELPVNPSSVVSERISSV
The experiment can be described thus: Radioligand binding assay, serotoninergic 5-HT2C receptors. The note with it: test compound 1×10^−6 M.

Experiment [5] deals with dopaminergic receptors D2 (Homo sapiens, UniProt P14416). The experiment can be described thus: Radioligand binding assay, dopaminergic D2 receptors. Conditions: for inhibition at 1 µM: binding assay, test compound 1×10^−6 M; for Ki: read-out: Inhibition constants Ki for D2 receptors, D2. Summed up: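 Displacement of radioligand from human dopamine D2, D3 or D4.4 receptors, counted by scintillation; specific binding is total minus binding under excess unlabelled ligand. IC50 values come from Hill curve fits of percent inhibition, then converted to Ki by Cheng-Prusoff using Scatchard-derived KD.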
dopaminergic receptors D2, sequence (P14416 whole entry): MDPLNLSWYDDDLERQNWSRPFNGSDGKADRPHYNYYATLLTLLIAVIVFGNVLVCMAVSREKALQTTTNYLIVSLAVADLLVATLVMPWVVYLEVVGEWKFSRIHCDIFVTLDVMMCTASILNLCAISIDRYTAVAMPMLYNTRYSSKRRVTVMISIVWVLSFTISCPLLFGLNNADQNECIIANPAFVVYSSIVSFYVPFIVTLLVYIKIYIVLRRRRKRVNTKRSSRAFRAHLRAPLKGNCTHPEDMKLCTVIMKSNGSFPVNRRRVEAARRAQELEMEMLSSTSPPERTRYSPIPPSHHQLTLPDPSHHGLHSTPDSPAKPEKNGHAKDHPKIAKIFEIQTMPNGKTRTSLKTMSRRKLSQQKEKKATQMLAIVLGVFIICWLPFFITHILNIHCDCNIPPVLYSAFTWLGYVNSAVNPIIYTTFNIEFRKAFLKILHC

Experiment [6] has as its target T6, serotonin transporter (SERT) (Homo sapiens, UniProt P31645).
T6 construct: expressed in transfected cells; host or cells: CHO cells
The experiment can be described thus: Radioligand binding assay, serotonin transporter (SERT). The note with it: binding assay, test compound 1×10^−6 M. Summed up:
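Values are derived from competition curves fitted by the Hill equation to give IC50, then converted to Ki by Cheng-Prusoff with radioligand Kd from Scatchard analysis. Specific binding equals total minus non-specific (excess cold ligand), counted by scintillation, and is also expressed as percent inhibition of control.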

The next experiment concerns σ receptors. The experiment can be described thus: Radioligand binding assay, σ receptors. The note with it: rat cerebral cortex, [3H]DTG 8 nM. Summed up:
as §1

T6 sequence (P31645 whole entry): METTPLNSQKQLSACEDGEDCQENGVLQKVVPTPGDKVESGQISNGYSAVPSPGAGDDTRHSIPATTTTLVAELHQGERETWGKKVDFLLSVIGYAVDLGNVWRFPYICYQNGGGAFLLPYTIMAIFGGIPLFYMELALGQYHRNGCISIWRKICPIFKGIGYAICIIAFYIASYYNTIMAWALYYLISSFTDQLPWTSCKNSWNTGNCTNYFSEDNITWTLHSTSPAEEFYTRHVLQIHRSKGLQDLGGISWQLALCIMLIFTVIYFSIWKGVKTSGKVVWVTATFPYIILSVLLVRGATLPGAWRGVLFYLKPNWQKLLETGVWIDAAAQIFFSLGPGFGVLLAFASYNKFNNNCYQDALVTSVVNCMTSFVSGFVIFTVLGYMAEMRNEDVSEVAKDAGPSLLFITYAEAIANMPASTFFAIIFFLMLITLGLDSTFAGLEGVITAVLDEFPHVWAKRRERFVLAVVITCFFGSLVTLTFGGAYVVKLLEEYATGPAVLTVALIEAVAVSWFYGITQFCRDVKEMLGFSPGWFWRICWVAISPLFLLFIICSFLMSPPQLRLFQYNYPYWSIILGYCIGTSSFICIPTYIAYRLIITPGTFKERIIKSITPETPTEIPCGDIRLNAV
dopaminergic receptors D3, sequence (P35462 whole entry): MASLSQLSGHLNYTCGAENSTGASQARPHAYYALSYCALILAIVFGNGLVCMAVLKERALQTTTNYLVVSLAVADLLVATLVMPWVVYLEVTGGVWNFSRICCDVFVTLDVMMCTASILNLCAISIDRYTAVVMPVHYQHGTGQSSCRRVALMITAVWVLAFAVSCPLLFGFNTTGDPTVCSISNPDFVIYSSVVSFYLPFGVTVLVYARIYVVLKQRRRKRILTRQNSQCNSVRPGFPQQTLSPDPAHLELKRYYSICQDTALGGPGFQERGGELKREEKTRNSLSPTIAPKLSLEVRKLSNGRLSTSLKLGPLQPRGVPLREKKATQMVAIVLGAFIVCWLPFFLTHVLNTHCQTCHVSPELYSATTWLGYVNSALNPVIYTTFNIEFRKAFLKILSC
T1 sequence (P20309 whole entry): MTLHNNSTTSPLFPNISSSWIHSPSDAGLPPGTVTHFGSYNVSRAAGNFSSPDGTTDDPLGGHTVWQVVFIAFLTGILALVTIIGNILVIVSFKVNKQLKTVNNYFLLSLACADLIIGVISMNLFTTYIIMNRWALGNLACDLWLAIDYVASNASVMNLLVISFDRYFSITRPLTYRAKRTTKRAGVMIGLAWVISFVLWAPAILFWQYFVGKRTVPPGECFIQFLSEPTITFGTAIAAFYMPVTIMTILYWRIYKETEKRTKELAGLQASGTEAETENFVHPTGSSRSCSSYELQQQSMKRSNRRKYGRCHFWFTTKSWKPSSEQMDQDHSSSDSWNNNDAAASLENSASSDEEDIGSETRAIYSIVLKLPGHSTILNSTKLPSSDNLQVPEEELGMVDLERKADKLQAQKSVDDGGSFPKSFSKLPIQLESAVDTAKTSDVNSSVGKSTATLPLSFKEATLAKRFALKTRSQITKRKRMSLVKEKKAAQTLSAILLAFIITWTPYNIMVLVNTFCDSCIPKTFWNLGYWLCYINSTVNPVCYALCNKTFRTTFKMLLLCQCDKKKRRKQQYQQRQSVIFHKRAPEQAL

What is called inhibition is the percentage by which the read-out fell short of the control. As usually defined, the Ki is the dissociation constant of the complex between target and ligand, obtained from inhibition or displacement. On to `O=S(=O)(N[C@@H]1CCN(CCCc2noc3cc(F)ccc23)C1)c1csc2ccccc12` [Compound 224, N-[(3R)-1-[3-(6-Fluoro-1,2-benzoxazol-3-yl)propyl]pyrrolidin-3-yl]benzothiophene-3-sulphonamide], for which the inhibition at 1 µM at M3 muscarinic receptors is 25%; in experiment [2], 60%; in experiment [3], 87%; in experiment [4] it was 76%; on 5-HT2C receptor, 71%; in experiment [5], 98%. In addition, at 1 µM the inhibition in [6] was 64%. In addition, the “α1 [%]” value in experiment [1] came to 89%. The inhibitory constant (Ki) at 5-HT2A receptor is 1.6 nM; in experiment [5], 8.7 nM. Moreover, the “σ [%]” value in the experiment with σ receptors is on record as 91%.
As to `O=S(=O)(N[C@H]1CCN(CCCc2noc3cc(F)ccc23)C1)c1csc2ccccc12` [Compound 225, N-[(3S)-1-[3-(6-Fluoro-1,2-benzoxazol-3-yl)propyl]pyrrolidin-3-yl]benzothiophene-3-sulphonamide], the inhibition at 1 µM at M3 muscarinic receptors was 23%; in experiment [2], 57%; in [3], 84%; in experiment [4] it was 62%; at 5-HT2C receptor, 72%; in [5], 97%. Moreover, in experiment [6], 1 µM produced 77% inhibition. For the same compound, the “α1 [%]” value in experiment [1] amounted to 93%. For the same compound, the inhibition constant Ki at 5-HT2A receptor amounted to 0.9 nM; in [5], 9.2 nM. Besides, the “σ [%]” value in the experiment on σ receptors turned out to be 96%.
`COc1ccc2cc(S(=O)(=O)N[C@@H]3CCN(CCCc4noc5cc(F)ccc45)C3)ccc2c1` [Compound 230, N-[(3R)-1-[3-(6-Fluoro-1,2-benzoxazol-3-yl)propyl]pyrrolidin-3-yl]-6-methoxy-naphthalene-2-sulphonamide]: the inhibition at 1 µM on M3 muscarinic receptors is 15%; in experiment [2], 71%; in [3], 99%; in experiment [4] it was 77%; at 5-HT2C receptor it was 91%; in experiment [5], 99%. Moreover, testing at 1 µM in experiment [6] gave an inhibition of 75%. Further, in experiment [1], the “α1 [%]” value was 83%. Also, the Ki at 5-HT2A receptor is 0.4 nM; in [5], 1.1 nM. Also, the “σ [%]” value in the experiment on σ receptors worked out at 90%.
For `COc1ccc2cc(S(=O)(=O)N[C@H]3CCN(CCCc4noc5cc(F)ccc45)C3)ccc2c1` [Compound 231, N-[(3S)-1-[3-(6-Fluoro-1,2-benzoxazol-3-yl)propyl]pyrrolidin-3-yl]-6-methoxy-naphthalene-2-sulphonamide], the inhibition at 1 µM turned out to be 22% on M3 muscarinic receptors; 54% in experiment [2]; 91% in experiment [3]; 34% in experiment [4]; 75% at 5-HT2C receptor; 95% in experiment [5]. In addition, 1 µM produced 63% inhibition in experiment [6]. Moreover, the “α1 [%]” value in experiment [1] was 79%. Further, the Ki turned out to be 1.9 nM at 5-HT2A receptor and 6.4 nM in [5]. Moreover, the “σ [%]” value in the experiment on σ receptors is given as 87%.
Consider `O=S(=O)(NCC1CCN(CCCc2noc3cc(F)ccc23)C1)c1ccc2cc(Cl)ccc2c1` (stereo not shown) [Compound 237, 6-Chloro-N-[[1-[3-(6-fluoro-1,2-benzoxazol-3-yl)propyl]pyrrolidin-3-yl]methyl]naphthalene-2-sulphonamide], for which the inhibition at 1 µM at M3 muscarinic receptors was 16%; in experiment [2] it was 66%; at 5-HT2A receptor, 97%; in [3], 89%; in [4], 45%; on 5-HT2C receptor, 79%. The inhibition at 1 µM in [5] amounted to 97%; in experiment [6], 61%. Further, the “α1 [%]” value in experiment [1] was 88%. Besides, the “σ [%]” value with σ receptors is given as 88%.
For `O=S(=O)(NCC1CCN(CCCc2noc3cc(F)ccc23)C1)c1ccc2ccccc2c1` (stereo not shown) [Compound 240, N-[[1-[3-(6-Fluoro-1,2-benzoxazol-3-yl)propyl]pyrrolidin-3-yl]methyl]-naphthalene-2-sulphonamide], the inhibition at 1 µM at M3 muscarinic receptors came out at 21%; in experiment [2], 55%; at 5-HT2A receptor, 99%; in experiment [3], 75%; in [4], 30%; at 5-HT2C receptor, 81%. Also, the figures for the inhibition at 1 µM in [5] and in experiment [6] were 95% and 43%, respectively. Further, the “α1 [%]” value in experiment [1] came out at 86%. Besides, the “σ [%]” value in the experiment on σ receptors is recorded as 92%.
Turning to `O=S(=O)(NCC1CCN(CCCc2noc3cc(F)ccc23)C1)c1ccc(-c2ccccc2)cc1` (stereo not shown) [Compound 241, N-[[1-[3-(6-Fluoro-1,2-benzoxazol-3-yl)propyl]pyrrolidin-3-yl]methyl]-4-phenyl-benzenesulphonamide], the inhibition at 1 µM stood at 19% on M3 muscarinic receptors; 69% in experiment [2]; 97% on 5-HT2A receptor; 87% in experiment [3]; 39% in [4]; 66% at 5-HT2C receptor. The figures for the inhibition at 1 µM in experiment [5] and in experiment [6] were 81% and 71%, respectively. Besides, the “α1 [%]” value in experiment [1] was determined as 62%. The “σ [%]” value in the experiment on σ receptors was 88%.
For `Cn1ccc2cc(S(=O)(=O)NCC3CCN(CCOc4cccc5c4OCCO5)C3)ccc21` (stereo not shown) [Compound 308, N-[[1-[2-(2,3-Dihydro-1,4-benzodioxin-5-yloxy)ethyl]pyrrolidin-3-yl]methyl]-1-methyl-indole-5-sulphonamide], the inhibition at 1 µM was 13% on M3 muscarinic receptors; 37% in [2]; 91% at 5-HT2A receptor; 43% in experiment [3]; 98% in [4]; 61% on 5-HT2C receptor. For the same compound, the inhibition at 1 µM in [5] was 57%; in [6], 95%. In experiment [1], the “α1 [%]” value is on record as 69%. The “σ [%]” value in the experiment on σ receptors is 91%.
`Cc1cc(S(=O)(=O)NCC2CCN(CCOc3cccc4c3OCCO4)C2)c(C)s1` (stereo not shown) [Compound 312, N-[[1-[2-(2,3-Dihydro-1,4-benzodioxin-5-yloxy)ethyl]pyrrolidin-3-yl]methyl]-2,5-dimethylthiophene-3-sulphonamide]: the inhibition at 1 µM on M3 muscarinic receptors worked out at 10%; in experiment [2], 35%; on 5-HT2A receptor it was 87%; in experiment [3], 36%; in experiment [4], 98%; at 5-HT2C receptor it was 55%. Further, the results for the inhibition at 1 µM in [5] and in experiment [6] were 36% and 87%, respectively. In experiment [1], the “α1 [%]” value amounted to 65%. Also, the “σ [%]” value in the experiment with σ receptors is reported as 92%.

The values are drawn from patent US20140135310A1, “SULPHONAMIDE DERIVATIVES OF ALICYCLIC AMINES FOR THE TREATMENT OF CENTRAL NERVOUS SYSTEM DISEASES” (Adamed Sp. z o.o., priority 2011, published 2014).
